In assay [1] the test system is platelet GPIbα and GPV receptor surface expression. As to the kind of experiment: Recombinant TACE-mediated GPIbα and GPV shedding from platelets. It counts as cell-based, mouse.
In assay [2] the test system is mouse platelets. The experiment in a line: Sialidase-induced β-galactose exposure on platelets, lectin binding by flow cytometry. Format: cell-based.
Assay [3] deals with mouse platelets. As to the kind of experiment: Survival of mouse platelets stored 20 hrs at RT in pPAS with or without DGJ after transfusion. It counts as in vivo. Particulars: 2 mM DGJ in pPAS, 30% plasma 70% pPAS, 20-hr storage at RT, vs pPAS alone. The procedure:
Materials and Methods: Blood was obtained from anesthetized 8 weeks old C57/Bl6 mice by retroorbital bleeding. Platelets and platelet poor plasma (PPP) were prepared by differential centrifugation as described. Isolated platelets were labeled with 2.5 μM of CMFDA for 15 min. Following staining, platelets were pelleted and resuspended in 500 μl of plasma, or in a mixture of 30% plasma and 70% pPAS (i.e., PPS9 formulation in Tables 1 and 3 without the 2 mM of DGJ shown in the tables) or pPAS+DGJ (2 mM) (PPS9 formulation in Tables 1 and 3). Platelets were stored for 20 hrs at room temperature and transfused into 8 weeks old syngeneic mice. Non-stored fresh platelets in plasma were used as control. Platelet survivals were determined by intravenous injections CMFDA-labeled mouse platelets, respectively. Blood was collected by retroorbital bleeding at 5 min, 2, 24, 48 and 72 hrs. The percentages of CMFDA-positive platelets were determined by flow cytometry.

The subject of a further assay is THP-1 cells. As to the kind of experiment: Ingestion of β-galactosidase treated platelets by THP-1 cells. It counts as cell-based. Particulars: fresh human platelets treated with β-galactosidase. The method, then: FIG. 44 is a bar graph showing that […] cells ingestion of human platelets correlates with decrease in β-galactose exposure. Isolated human platelets were labeled with CM-Orange, added to THP-1 cells and incubated for 30 min at 37° C. Ingestion of fluorescently labeled control fresh room temperature platelets and platelets treated by β-galactosidase was detected using flow cytometry, as an increase in […] associated orange fluorescence.
We treated fresh isolated platelets from healthy volunteers with β-galactosidase, which cleaves terminal β-galactose from platelet surfaces.

For assay [4], the system named is mouse platelets. As to the kind of experiment: Sialidase (neuraminidase)-induced loss of platelet surface receptors, flow cytometry and immunoblot. Format: cell-based.
For assay [5], the system named is mouse platelets. As to the kind of experiment: Surface receptor loss of mouse platelets stored at room temperature. Particulars: mouse platelets stored at room temperature for 6 h, with fetuin (30-60% loss without). Format: cell-based.
In assay [6] the test system is mouse platelets. As to the kind of experiment: β-galactose exposure by FITC RCA-1 lectin binding with fetuin as competitive sialidase substrate. Particulars: fetuin 1 mg/mL. It counts as cell-based.

Entries after “also recorded” stand apart in the source; their conditions may differ.

In the case of `CNC(=O)[C@H](Cc1c[nH]c2ccccc12)NC(=O)[C@@H](CC(=O)NO)CC(C)C` [GM6001], the “receptor shedding by rTACE in presence of inhibitor” value in assay [1] is “inhibited receptor shedding”. Also, the “β-galactose exposure induced by sialidase in presence of inhibitor” value with mouse platelets [2] is given as “did not prevent β-galactose exposure”.

With `OC[C@H]1NC[C@H](O)[C@@H](O)[C@H]1O` [DGJ, 1-deoxygalactonojirimycin], the “survival of the transfused platelets” value in the assay on mouse platelets [3] is “significantly improved the survival of the transfused platelets”.

With “rTACE: recombinant TACE (ADAM17) metalloprotease”, in assay [1] (platelets treated with rTACE), the “GPIbα released from platelets” value was 47%±6 and the “GPV released from platelets” value was 18%±12. Also, the “GPIX and αIIbβ3 released from platelets” value in assay [1] (platelets treated with rTACE, not shown) is listed as “negligible amounts”.

As for β-galactosidase, in the assay with THP-1 cells, the “ingestion of platelets by THP-1 cells compared to control platelets” value was 4 fold.

With “fetuin: neuraminidase (NA) substrate, competitive sialidase substrate”, the “loss (shedding) of platelet GPIbα and GPV induced by sialidase/neuraminidase, in presence of inhibitor” value in the assay on mouse platelets [4] is “completely prevented this loss”. Moreover, in the assay with mouse platelets [5], the “loss of GPIb and GPV” value is given as 10-20%. Also, in the assay on mouse platelets [6] (fresh platelets at room temperature), the “RCA-1 binding to fresh platelets” value was “no effect”. In addition, the “sialic acid hydrolysis (β-galactose exposure, RCA-1 binding) during platelet storage” value in the assay on mouse platelets [6] (mouse platelet rich plasma, refrigeration 48 h) is “inhibits the hydrolysis of sialic acid from platelet glycans; also recorded: greatly inhibits sialic acid hydrolysis”.

Source of the values: patent publication US9788539B2, “Platelet protection solution having beta-galactosidase and sialidase inhibitors” (Velico Medical, Inc., priority 2011, dated 2017).
